The values that follow come from ChEMBL document CHEMBL5104136, “Discovery of benzodioxane analogues as lead candidates of AIMP2-DX2 inhibitors” (Bioorg Med Chem Lett, 2022).

The target of series [1] is T1, Aminoacyl tRNA synthase complex-interacting multifunctional protein 2 (Homo sapiens, UniProt Q13155). Put plainly: Inhibition of AIMP2-DX2 in human A549 cells by luciferase assay. It is filed as cell-based.
For series [2], the target named is T1, Aminoacyl tRNA synthase complex-interacting multifunctional protein 2. Put plainly: Inhibition of AIMP2-DX2 in human A549 cells by nanoluciferase based assay. In kind it is cell-based.
The target of series [3] is Cytochrome P450 2C9 (Homo sapiens, UniProt P11712). Put plainly: Inhibition of CYP2C9 (unknown origin). It is filed as ADME.
Sequence of Cytochrome P450 2C9 (P11712 whole entry): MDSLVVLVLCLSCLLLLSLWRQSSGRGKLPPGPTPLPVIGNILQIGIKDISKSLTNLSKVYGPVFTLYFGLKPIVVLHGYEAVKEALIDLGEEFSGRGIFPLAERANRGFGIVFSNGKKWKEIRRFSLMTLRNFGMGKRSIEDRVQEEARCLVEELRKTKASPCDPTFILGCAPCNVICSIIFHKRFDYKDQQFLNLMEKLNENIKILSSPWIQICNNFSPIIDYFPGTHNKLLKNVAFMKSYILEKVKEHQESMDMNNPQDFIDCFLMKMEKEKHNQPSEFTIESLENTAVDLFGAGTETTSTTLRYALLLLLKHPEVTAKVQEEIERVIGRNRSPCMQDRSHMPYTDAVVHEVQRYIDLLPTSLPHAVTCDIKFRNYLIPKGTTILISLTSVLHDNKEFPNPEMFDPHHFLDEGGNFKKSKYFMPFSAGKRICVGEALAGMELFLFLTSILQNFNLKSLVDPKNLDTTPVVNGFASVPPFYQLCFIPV
Series [4] concerns the target T2, Cytochrome P450 1A2 (Homo sapiens, UniProt P05177).
T2 sequence (P05177 whole entry): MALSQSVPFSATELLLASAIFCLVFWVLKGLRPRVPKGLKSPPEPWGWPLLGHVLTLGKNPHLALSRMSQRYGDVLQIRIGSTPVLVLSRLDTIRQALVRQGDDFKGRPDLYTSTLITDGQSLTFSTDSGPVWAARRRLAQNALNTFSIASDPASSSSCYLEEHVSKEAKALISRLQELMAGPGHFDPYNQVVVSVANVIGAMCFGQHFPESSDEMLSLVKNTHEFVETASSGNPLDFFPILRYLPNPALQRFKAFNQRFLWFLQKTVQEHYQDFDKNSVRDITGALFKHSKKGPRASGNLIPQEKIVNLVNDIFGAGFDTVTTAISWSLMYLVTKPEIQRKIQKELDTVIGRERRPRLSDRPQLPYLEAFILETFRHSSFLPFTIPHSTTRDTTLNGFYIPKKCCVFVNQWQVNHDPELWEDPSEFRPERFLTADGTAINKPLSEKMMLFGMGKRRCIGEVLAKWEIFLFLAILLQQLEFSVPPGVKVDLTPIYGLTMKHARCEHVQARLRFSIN
Put plainly: Inhibition of CYP1A2 (unknown origin). In kind it is ADME.

Series [5] concerns the target Cytochrome P450 3A4 (Homo sapiens, UniProt P08684). Put plainly: Inhibition of CYP3A4 (unknown origin). In kind it is ADME.
The target of series [6] is Cytochrome P450 2D6 (Homo sapiens, UniProt P10635). Put plainly: Inhibition of CYP2D6 (unknown origin). In kind it is ADME.
Sequence of Cytochrome P450 2D6 (P10635 whole entry): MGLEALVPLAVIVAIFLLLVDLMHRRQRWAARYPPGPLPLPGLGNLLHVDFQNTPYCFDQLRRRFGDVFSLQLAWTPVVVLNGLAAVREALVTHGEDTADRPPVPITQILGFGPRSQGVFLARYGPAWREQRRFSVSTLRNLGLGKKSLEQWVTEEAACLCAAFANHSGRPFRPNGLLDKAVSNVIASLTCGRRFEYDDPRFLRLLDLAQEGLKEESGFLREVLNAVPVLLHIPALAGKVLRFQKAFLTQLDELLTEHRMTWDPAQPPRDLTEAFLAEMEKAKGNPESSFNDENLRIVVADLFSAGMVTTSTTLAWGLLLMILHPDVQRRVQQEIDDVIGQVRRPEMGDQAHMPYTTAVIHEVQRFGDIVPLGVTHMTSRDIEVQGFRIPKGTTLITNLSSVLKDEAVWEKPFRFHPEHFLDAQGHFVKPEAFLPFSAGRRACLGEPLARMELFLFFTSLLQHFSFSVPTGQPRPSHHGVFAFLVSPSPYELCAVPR
A short description of series [7]: Plasma stability in human assessed as compound remaining measured after 2 hrs. In kind it is ADME, cell-free. Conditions: read-out: Stability.
Series [8] is described as follows: Metabolic stability in mouse assessed as half life. In kind it is ADME.
Series [9] is described as follows: Cytotoxicity against human WI-26 cells expressing low levels of AIMP2-DX2 assessed as reduction in cell viability incubated for 96 hrs. It is filed as toxicity, cell-based. As to conditions: wi-26, 96 h.
A short description of series [10]: Metabolic stability in human assessed as half life. In kind it is ADME.
In series [11] the test system is NCI-H460. Put plainly: Cytotoxicity against human NCI-H460 cells expressing median levels of AIMP2-DX2 assessed as reduction in cell viability incubated for 96 hrs. As to conditions: NCI-H460, 96 h. In kind it is functional, cell-based.
For series [12], the system named is A549. Put plainly: Cytotoxicity against human A549 cells expressing high levels of AIMP2-DX2 assessed as reduction in cell viability incubated for 96 hrs. In kind it is functional, cell-based. As to conditions: A549, 96 h.
For series [13], the target named is Cytochrome P450 2C19 (Homo sapiens, UniProt P33261). Put plainly: Inhibition of CYP2C19 (unknown origin). It is filed as ADME.
Sequence of Cytochrome P450 2C19 (P33261 whole entry): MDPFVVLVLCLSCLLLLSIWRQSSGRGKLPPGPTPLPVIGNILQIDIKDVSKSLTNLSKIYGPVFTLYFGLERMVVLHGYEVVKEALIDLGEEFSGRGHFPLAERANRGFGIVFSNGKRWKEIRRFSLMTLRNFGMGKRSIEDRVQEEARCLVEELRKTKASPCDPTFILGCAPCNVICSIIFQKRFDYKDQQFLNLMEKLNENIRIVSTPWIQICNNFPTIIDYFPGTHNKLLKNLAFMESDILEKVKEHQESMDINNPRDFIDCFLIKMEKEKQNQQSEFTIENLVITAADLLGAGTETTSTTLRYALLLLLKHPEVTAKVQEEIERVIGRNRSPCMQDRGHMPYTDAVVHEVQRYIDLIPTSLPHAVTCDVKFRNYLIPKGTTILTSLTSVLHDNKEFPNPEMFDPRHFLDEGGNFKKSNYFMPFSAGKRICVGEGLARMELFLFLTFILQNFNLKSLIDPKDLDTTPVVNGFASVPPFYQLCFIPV
Series [14] is described as follows: Plasma stability in mouse assessed as compound remaining measured after 2 hrs. In kind it is ADME, cell-free. As to conditions: read-out: Stability.
In series [15] the test system is A549. Put plainly: Inhibition of cell proliferation in human A549 cells. It is filed as functional, cell-based.

T1 sequence (Q13155 whole entry, looked up, one chain of several): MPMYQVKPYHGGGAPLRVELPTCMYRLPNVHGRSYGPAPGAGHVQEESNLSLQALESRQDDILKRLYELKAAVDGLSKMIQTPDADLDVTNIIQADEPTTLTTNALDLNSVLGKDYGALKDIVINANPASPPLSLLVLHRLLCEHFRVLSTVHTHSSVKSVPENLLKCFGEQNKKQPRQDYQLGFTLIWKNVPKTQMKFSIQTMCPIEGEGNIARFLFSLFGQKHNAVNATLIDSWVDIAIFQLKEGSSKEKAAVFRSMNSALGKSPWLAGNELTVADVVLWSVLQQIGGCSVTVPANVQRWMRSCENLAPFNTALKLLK
Sequence of Cytochrome P450 3A4 (P08684 whole entry): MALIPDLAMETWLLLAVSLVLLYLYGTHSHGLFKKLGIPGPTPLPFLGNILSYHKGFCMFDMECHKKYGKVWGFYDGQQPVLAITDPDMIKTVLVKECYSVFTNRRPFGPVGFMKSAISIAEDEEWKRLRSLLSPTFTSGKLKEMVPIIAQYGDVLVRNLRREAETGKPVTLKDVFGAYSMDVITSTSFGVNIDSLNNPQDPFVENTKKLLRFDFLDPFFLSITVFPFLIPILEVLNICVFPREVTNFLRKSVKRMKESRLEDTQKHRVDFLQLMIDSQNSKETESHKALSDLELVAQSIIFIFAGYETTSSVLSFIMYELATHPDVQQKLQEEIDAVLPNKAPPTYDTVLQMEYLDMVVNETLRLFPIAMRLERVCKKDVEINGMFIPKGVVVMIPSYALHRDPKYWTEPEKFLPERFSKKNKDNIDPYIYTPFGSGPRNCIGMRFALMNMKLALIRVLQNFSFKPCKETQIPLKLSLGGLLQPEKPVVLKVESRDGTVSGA

The term IC50 denotes the concentration that inhibits the measured activity by half. With `Cc1ccc2c(CC(=O)NCC3COc4ccccc4O3)coc2c1` (stereo unspecified), half-maximal inhibition in series [1] (IC50) was put at 5.68 µM.
A word on the half-life: it is how long it takes for the measured level to halve. The term EC50 denotes the concentration giving half of the maximal effect. `O=C(O)c1cccc(-c2ccc(/C=N/NC(=O)C3COc4ccccc4O3)o2)c1` (stereo unspecified): the IC50 in series [1] is 7.38 µM; in series [2], 10.1 µM; in series [3] it was 49.5 µM; in [4], more than 50000 nM; in series [5] it was more than 50 µM; in series [6], more than 50 µM. In addition, the IC50 in series [13] is more than 50000 nM. For the same molecule, the remaining at 2 h came to 69.8% in series [7] and 47.3% in [14]. The half-life in series [8] amounted to 30.9 min; in [10], 49.1 min. Also, the Activity result in [9] is listed as “Non-Toxic”. The EC50 in series [11] came to 2980 nM; in [12], 12000 nM.
As to `Cc1cc2occ(CC(=O)NCC3COc4ccccc4O3)c2cc1C` (stereo unspecified), the Activity entry in series [9] was “Non-Toxic”. For the same molecule, the EC50 in [11] was determined as 370 nM; in series [12], 1230 nM.
`O=C(Cc1ccc(-c2ccccc2)cc1)NCC1COc2ccccc2O1` (stereo unspecified): the IC50 in series [3] was 0.559 µM; in series [4], 1640 nM; in series [5], more than 50 µM; in series [6] it was 12.3 µM; in series [13], 228 nM. Besides, the remaining at 2 h was found to be 98.7% in series [7] and 108% in series [14]. The figures for the half-life in series [8] and in [10] were 1.6 min and less than 2.5 min, respectively. Besides, in series [9], the Activity entry is reported as “Non-Toxic”. Besides, the EC50 came to 150 nM in series [11] and 690 nM in [12].
With `Cc1ccc(S(=O)(=O)N[C@@H](CC(C)C)C(=O)N2CCCOCCOCCOCC2)cc1`, the half-maximal inhibitory concentration (IC50) in series [15] amounted to 40.1 µM.
As for `CCc1ccc(CC(=O)NCC2COc3ccccc3O2)cc1` (stereo unspecified), the IC50 turned out to be 3.46 µM in series [3]; 417 nM in [4]; 36.2 µM in series [5]; 29.2 µM in [6]; 461 nM in [13]. Moreover, the remaining at 2 h is 97% in [7] and 94.2% in [14]. The half-life in series [8] was 0.7 min; in series [10], 2.7 min. Also, the Activity entry in series [9] is “Non-Toxic”. Moreover, the EC50 in series [11] was 204 nM; in series [12], 688 nM.
`Cc1cc(O)ccc1CC(=O)NCC1COc2ccccc2O1` (stereo unspecified): the Activity result in series [9] is given as “Non-Toxic”. In addition, the EC50 amounted to 458 nM in [11] and 1100 nM in series [12].
